Laboratory results taken from publication PMC8286840, “Identifying SARS-CoV-2 antiviral compounds by screening for small molecule inhibitors of Nsp3 papain-like protease” (Biochemical Journal, 2021).
Counter-ions that a name gives are not always drawn. Like-named read-outs stand apart in the source and are kept apart here.

Columns and labels:
[1] = target: T1, SARS-CoV-2 PLpro (nsp3 1564–1878) (Severe acute respiratory syndrome coronavirus 2, UniProt P0DTD1); assay: biochemical; parameters: FRET-quenched peptide (Pro3) cleavage by PLpro, 10 min pre-incubation, slope over 20 min, normalised to no-compound control; settings: low concentration screen, read-out: % of control remaining
[2] = target: T1, SARS-CoV-2 PLpro (nsp3 1564–1878); assay: biochemical; parameters: FRET-quenched peptide (Pro3) cleavage by PLpro, 10 min pre-incubation, slope over 20 min, normalised to no-compound control; settings: high concentration screen, read-out: % of control remaining

SMILES: CC(=O)O/N=C1/C(c2c(O)[nH]c3cc(Br)ccc23)=Nc2ccccc21 [BIO-Acetoxime]
- remaining activity at 1.25 µM ([1]; Well no.=5822): 96%
- remaining activity at 3.75 µM ([2]; Well no.=5822): 93.6%

SMILES: Cc1ccc(-n2nc(C(C)(C)C)cc2NC(=O)Nc2ccc(OCCN3CCOCC3)c3ccccc23)cc1 [BIRB 796 (Doramapimod)]
- remaining activity at 1.25 µM ([1]; Well no.=5264): 89.3%
- remaining activity at 3.75 µM ([2]; Well no.=5264): 89.7%

SMILES: COc1cc2nc(N3CCCN(C)CC3)nc(NC3CCN(Cc4ccccc4)CC3)c2cc1OC [BIX01294]
- remaining activity at 1.25 µM ([1]; Well no.=5180): 102%
- remaining activity at 3.75 µM ([2]; Well no.=5180): 99.6%

SMILES: CN(C)Cc1cccc(N/C(=C2\C(=O)Nc3cc(C(N)=O)ccc32)c2ccccc2)c1 [BIX 02188]
- remaining activity at 1.25 µM ([1]; Well no.=5283): 96.6%
- remaining activity at 3.75 µM ([2]; Well no.=5283): 93.8%

SMILES: COc1ccc2c(c1)c(CC(=O)N1CCOCC1)c(C)n2C(=O)c1ccc(Cl)cc1 [BML-190]
- remaining activity at 1.25 µM ([1]; Well no.=4328): 97.5%
- remaining activity at 1.25 µM ([1]; Well no.=8379): 96.7%
- remaining activity at 3.75 µM ([2]; Well no.=4328): 92.3%
- remaining activity at 3.75 µM ([2]; Well no.=8379): 97.9%

SMILES: Nc1ccccc1NC(=O)CCCCCCC(=O)Nc1ccccc1 [BML-210]
- remaining activity at 1.25 µM ([1]; Well no.=5799): 105%
- remaining activity at 3.75 µM ([2]; Well no.=5799): 104%

SMILES: CCOc1ccn(-c2ccc(F)cc2)c(=O)c1C(=O)Nc1ccc(Oc2ccnc(N)c2Cl)c(F)c1 [BMS 777607]
- remaining activity at 1.25 µM ([1]; Well no.=5297): 94.1%
- remaining activity at 3.75 µM ([2]; Well no.=5297): 90.4%

SMILES: Nc1nccc(Oc2ccc(NC(=O)c3c[nH]cc(-c4ccc(F)cc4)c3=O)cc2F)c1Cl [BMS 794833]
- remaining activity at 1.25 µM ([1]; Well no.=5150): 100%
- remaining activity at 3.75 µM ([2]; Well no.=5150): 96.4%

SMILES: COc1cc(OCc2cccc(-c3ccccc3)c2C)cc(OC)c1CN1CCCC[C@H]1C(=O)O [BMS-1]
- remaining activity at 1.25 µM ([1]; Well no.=7780): 98.8%
- remaining activity at 1.25 µM ([1]; Well no.=8163): 105%
- remaining activity at 3.75 µM ([2]; Well no.=7780): 96.2%
- remaining activity at 3.75 µM ([2]; Well no.=8163): 100%

SMILES: O=C(Nc1ncc(-c2cc(C(F)F)nn2-c2c(Cl)cccc2Cl)s1)C1CC1 [BMS-3]
- remaining activity at 1.25 µM ([1]; Well no.=3039): 95.8%
- remaining activity at 3.75 µM ([2]; Well no.=3039): 96.4%

SMILES: CC(C)C(=O)Nc1ncc(-c2cc(C(F)F)nn2-c2c(Cl)cccc2Cl)s1 [BMS-5]
- remaining activity at 1.25 µM ([1]; Well no.=2705): 100%
- remaining activity at 3.75 µM ([2]; Well no.=2705): 96.9%

SMILES: COc1nc(OCc2cccc(-c3ccccc3)c2C)ccc1CNCCNC(C)=O [BMS-202]
- remaining activity at 1.25 µM ([1]; Well no.=8469): 100%
- remaining activity at 1.25 µM ([1]; Well no.=8694): 96.5%
- remaining activity at 3.75 µM ([2]; Well no.=8469): 95.5%
- remaining activity at 3.75 µM ([2]; Well no.=8694): 93.7%

SMILES: Cc1c(COc2cc(OCc3cccc(C#N)c3)c(CN3C[C@H](O)C[C@@H]3C(=O)O)cc2Cl)cccc1-c1ccc2c(c1)OCCO2 [BMS-1166]
- remaining activity at 1.25 µM ([1]; Well no.=8310): 96.7%
- remaining activity at 3.75 µM ([2]; Well no.=8310): 96.4%

SMILES: CC1(C)CC=C(c2cnc3ccccc3c2)c2cc(C(=O)Nc3ccc(C(=O)O)cc3)ccc21 [BMS-195614]
- remaining activity at 1.25 µM ([1]; Well no.=5458): 98.2%
- remaining activity at 3.75 µM ([2]; Well no.=5458): 103%

SMILES: CCCCOc1c(C(=O)c2c(F)cc(C)cc2F)c[nH]c2nncc1-2 [BMS-265246]
- remaining activity at 1.25 µM ([1]; Well no.=5010): 95.8%
- remaining activity at 3.75 µM ([2]; Well no.=5010): 96.6%

SMILES: COc1ccnc2[nH]cc(C(=O)C(=O)N3CCN(C(=O)c4ccccc4)C[C@H]3C)c12 [BMS-378806]
- remaining activity at 1.25 µM ([1]; Well no.=8420): 96.7%
- remaining activity at 3.75 µM ([2]; Well no.=8420): 94.2%

SMILES: Cn1c(N2CCCCS2(=O)=O)nc(C(=O)NCc2ccc(F)cc2)c(O)c1=O [BMS-707035]
- remaining activity at 1.25 µM ([1]; Well no.=5193): 105%
- remaining activity at 3.75 µM ([2]; Well no.=5193): 106%

SMILES: CC(=O)N[C@@H]1C[C@H](NC(C)(C)C)CC[C@@H]1N1CC[C@H](Nc2ncnc3cc(C(C)(C)C)nn23)C1=O [BMS-813160]
- remaining activity at 1.25 µM ([1]; Well no.=8217): 103%
- remaining activity at 3.75 µM ([2]; Well no.=8217): 100%

SMILES: COc1ccccc1N1CCN(CCN2C(=O)CC3(CCCC3)CC2=O)CC1 [BMY 7378 dihydrochloride]
- remaining activity at 1.25 µM ([1]; Well no.=229): 98.4%
- remaining activity at 3.75 µM ([2]; Well no.=229): 100%

SMILES: COc1ccccc1N1CCN(CCN2C(=O)CC3(CCCC3)CC2=O)CC1 [BMY 7378]
- remaining activity at 1.25 µM ([1]; Well no.=5346): 91.4%
- remaining activity at 3.75 µM ([2]; Well no.=5346): 88.7%

SMILES: CCCc1cc(=O)oc2c(C(=O)N3CCCc4ccccc43)c(OC)cc(OC)c12 [BNS-22]
- remaining activity at 1.25 µM ([1]; Well no.=5907): 101%
- remaining activity at 3.75 µM ([2]; Well no.=5907): 98.7%

SMILES: COC(=O)CC(NC(=O)OC(C)(C)C)C(=O)CF [BOC-D-FMK]
- remaining activity at 1.25 µM ([1]; Well no.=6868): 95.7%
- remaining activity at 1.25 µM ([1]; Well no.=7644): 101%
- remaining activity at 3.75 µM ([2]; Well no.=6868): 93.9%
- remaining activity at 3.75 µM ([2]; Well no.=7644): 95.4%

SMILES: COc1ccccc1N1CCN(CCCCNC(=O)c2ccc3ccccc3c2)CC1 [BP897]
- remaining activity at 1.25 µM ([1]; Well no.=6013): 106%
- remaining activity at 3.75 µM ([2]; Well no.=6013): 98.6%

SMILES: COc1ccccc1N1CCN(CCCCNC(=O)c2ccc3ccccc3c2)CC1 [BP 897]
- remaining activity at 1.25 µM ([1]; Well no.=35): 95.8%
- remaining activity at 3.75 µM ([2]; Well no.=35): 93.4%

SMILES: Cn1cnc2cc3c(Nc4cccc(Br)c4)ncnc3cc21 [BPIQ-I]
- remaining activity at 1.25 µM ([1]; Well no.=2357): 101%
- remaining activity at 3.75 µM ([2]; Well no.=2357): 99%

SMILES: CCCC[C@@H](NC(=O)[C@@H](Cc1cn(C(=O)OC)c2ccccc12)NC(=O)[C@H](CC(C)(C)C)NC(=O)N1[C@H](C)CCC[C@@H]1C)C(=O)O [BQ-788 (sodium salt)]
- remaining activity at 1.25 µM ([1]; Well no.=8560): 108%
- remaining activity at 3.75 µM ([2]; Well no.=8560): 101%

SMILES: Cc1nn(C)c2c1C(c1ccc(C(F)(F)F)cc1)C(C#N)=C(N)O2 (stereo not drawn) [BQU57]
- remaining activity at 1.25 µM ([1]; Well no.=7957): 103%
- remaining activity at 3.75 µM ([2]; Well no.=7957): 94.7%

SMILES: COC(=O)c1ccc2c(c1)nc(NC(=O)c1ccccc1)n2CCCc1ccccc1 [BRD4770]
- remaining activity at 1.25 µM ([1]; Well no.=5781): 97%
- remaining activity at 3.75 µM ([2]; Well no.=5781): 96.3%

SMILES: COc1ccc(Nc2nc(N)nc(CN3CCCCC3)n2)cc1 [BRD32048]
- remaining activity at 1.25 µM ([1]; Well no.=5572): 91.7%
- remaining activity at 3.75 µM ([2]; Well no.=5572): 98.9%

SMILES: O=C(NO)c1cccc(C(=O)NCCc2ccccc2)c1 [BRD73954]
- remaining activity at 1.25 µM ([1]; Well no.=5588): 99.7%
- remaining activity at 3.75 µM ([2]; Well no.=5588): 92.7%

SMILES: OC(CN1CCN(c2cccc(Cl)c2)CC1)C(c1ccccc1)c1ccccc1 (stereo not drawn) [BRL 15572]
- remaining activity at 1.25 µM ([1]; Well no.=131): 95.9%
- remaining activity at 3.75 µM ([2]; Well no.=131): 98.1%

SMILES: CN1CCC(c2c[nH]c3ccc(O)cc23)CC1 [BRL 54443 maleate]
- remaining activity at 1.25 µM ([1]; Well no.=231): 101%
- remaining activity at 3.75 µM ([2]; Well no.=231): 101%

SMILES: CN1CCC(c2c[nH]c3ccc(O)cc23)CC1 [BRL 54443]
- remaining activity at 1.25 µM ([1]; Well no.=5171): 98%
- remaining activity at 1.25 µM ([1]; Well no.=6945): 103%
- remaining activity at 3.75 µM ([2]; Well no.=5171): 89.8%
- remaining activity at 3.75 µM ([2]; Well no.=6945): 93.5%

SMILES: OC(CN1CCN(c2cccc(Cl)c2)CC1)C(c1ccccc1)c1ccccc1 (stereo not drawn) [BRL-15572]
- remaining activity at 1.25 µM ([1]; Well no.=5336): 94.9%
- remaining activity at 3.75 µM ([2]; Well no.=5336): 94.2%
